Assay results: patent US20110059869A1, “Method for Increasing Enzymatic Reactivity” (RIKEN, priority 2008, published 2011)

What was measured:
Type in all cases: biochemical
restriction enzyme PstI [1] = experiment: PstI cleavage of DNA fragments I, II, III in a uniform liquid phase system; details: 0.6 M trehalose present or not, three hours at 37° C.
Procedure: In the same manner as in 7 above, the three biotin-labeled DNA fractions I, II, and III (Seq. ID Nos. 4 to 6) were each cleaved at the restriction enzyme PstI site and the DNA fragments of various sizes that were released were detected. Two types of reaction solution (1× PstI buffer, 1× BSA, restriction enzyme 40 units) were prepared: a trehalose (+) system with a final D(+)-trehalose concentration of 0.6 M, and a trehalose (−) system to which no trehalose was added. Each of the reaction solutions was admixed and reacted for three hours at 37° C. Cleavage was conducted with restriction enzyme. The DNA fragments of various sizes that were released were reacted with proteinase K, treated with phenol chloroform, and precipitated from ethanol. The precipitate of DNA fragments obtained was dissolved in 1× TE (pH 7.5) and analyzed with Bioanalyzer DNA 1000 assay (Agilent Technologies) (FIGS. 15 and 16).

[2] = test system: XhoI, PstI, HindIII, and EcoRI; experiment: DNA cleavage reactions by various restriction enzymes on bead and plate surfaces; details: 0.6 M trehalose vs none, all enzymes
Procedure: Differences in activity based on the type of enzyme in reactions under conditions where trehalose was present and absent and for various reactions surface shapes were examined. XhoI, PstI, HindIII, and EcoRI were employed as restriction enzymes to conduct reactions cleaving the same site on a DNA fragment with different enzymes (Scheme 8).
Cleavage reactions by various restriction enzymes were conducted on biotin-labeled DNA fragments I, II, and III (Seq. ID Nos. 4 to 6, Scheme 4) on bead surfaces. […] Paramagnetic streptavidin beads were washed with accessory 1× binding buffer, recovered with a magnetic stand to remove the supernatant, and suspended in the same buffer. […] The precipitate of DNA fragments obtained was dissolved in 1× TE (pH 7.5) and analyzed with Bioanalyzer DNA 1000 assay (Agilent Technologies).
Biotin-labeled DNA fragments II and III (Seq. ID Nos. 5 and 6, Scheme 4) were subjected to cleavage reactions by different restriction enzymes on horizontal streptavidin-coated plate surfaces. […] The precipitate of DNA fragments obtained was dissolved in 1× TE (pH 7.5) and analyzed with Bioanalyzer DNA 1000 assay (Agilent Technologies).

restriction enzyme PstI [3] = experiment: PstI cleavage reaction in solution (DNA fragment III); details: normal reaction solution, with vs without 0.6 M trehalose; three hours
Procedure: Biotin-labeled DNA fragment III (Seq. ID No. 6, Scheme 4) was cleaved at the restriction enzyme PstI site in solution and the 104 by DNA fragment that was released was examined. Two forms of reaction solution (DNA fragment III 500 ng, 1× PSTI buffer, 1× BSA, restriction enzyme 40 units) were prepared: a total of 50 uL trehalose (+) reaction solution to which D(+)-trehalose was added to a final concentration of 0.6 M, and a total of 50 uL trehalose (−) reaction solution, to which no trehalose was added. The reaction solutions were reacted for 3 hours at 37° C., a proteinase K reaction was conducted, phenol chloroform treatment was carried out, and precipitation from ethanol was conducted. The precipitate of the DNA fragment obtained was dissolved in 1× TE (pH 7.5) and analyzed with Bioanalyzer DNA 1000 assay (Agilent Technologies).

[4] = test system: XhoI, PstI, HindIII, and NotI; experiment: Various restriction enzyme reactions on biotin-labeled cDNA immobilized on streptavidin beads; details: 0.6 M trehalose vs trehalose (−); 3 hours at 37° C.; all enzymes
Procedure: Streptavidin beads on which were adsorbed double-stranded cDNA were washed with various restriction enzyme buffers. The restriction enzymes employed were XhoI, PstI, HindIII, and NotI. Two reaction solutions (various 1× buffers, 1× BSA based on enzyme, restriction enzyme 40 units) were prepared: a trehalose (+) system to which D(+)-trehalose was added to a final concentration of 0.6 M, and a trehalose (−) system, to which no trehalose was added. The reaction solutions were admixed to beads that had been washed and the mixtures were reacted for 3 hours at 37° C. A magnetic stand was used to recover (aggregate) the beads, cleavage was conducted with restriction enzyme, and the supernatant containing the cDNA that had been released was measured with a liquid scintillation counter. The cDNA yield and restriction enzyme efficiency were calculated from the RI count values (Scheme 2).

With `OC[C@H]1O[C@H](O[C@H]2O[C@H](CO)[C@@H](O)[C@H](O)[C@H]2O)[C@H](O)[C@@H](O)[C@@H]1O` [trehalose, D(+)-trehalose] the “quantity of the released DNA fragments recovered” value (restriction enzyme PstI [1]) was “no change”, the “enzymatic activity in cleavage reactions” value [2] was “increased activity” and the “yield of released DNA fragment” value (restriction enzyme PstI [3]) was “the same yield”. For the same molecule, the “quantity of released cDNA recovered” value [4] was “higher quantity was recovered”.
